According to US20200239530A1, “COMPOUNDS AND METHODS OF MODULATING PROTEIN DEGRADATION” (Vividion Therapeutics, Inc., priority 2017, published 2020):
Where two headings read alike, the source gives them in different places.

Legend:
Experiment in all cases: Competitive cysteine profiling, probe competition (Table 2B)
Assay type in all cases: binding
Q9UM13 = target: T1, Q9UM13 (Homo sapiens, UniProt Q9UM13)
T1 construct: Cells were resuspended in cold PBS on ice and sonicated with a probe sonicator to achieve lysis; endogenous in cells
T1 sequence (Q9UM13 whole entry): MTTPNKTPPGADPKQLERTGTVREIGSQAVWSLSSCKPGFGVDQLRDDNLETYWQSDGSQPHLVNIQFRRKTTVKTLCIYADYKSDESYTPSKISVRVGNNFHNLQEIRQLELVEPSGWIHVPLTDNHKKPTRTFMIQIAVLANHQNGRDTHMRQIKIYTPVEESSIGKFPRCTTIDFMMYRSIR
Description: (§1) The following 96-well sample prep protocol was used for sample preparation.

Q9UJX5 = target: T2, Q9UJX5 (Homo sapiens, UniProt Q9UJX5)
T2 construct: Cells were resuspended in cold PBS on ice and sonicated with a probe sonicator to achieve lysis; endogenous in cells
T2 sequence (Q9UJX5 whole entry): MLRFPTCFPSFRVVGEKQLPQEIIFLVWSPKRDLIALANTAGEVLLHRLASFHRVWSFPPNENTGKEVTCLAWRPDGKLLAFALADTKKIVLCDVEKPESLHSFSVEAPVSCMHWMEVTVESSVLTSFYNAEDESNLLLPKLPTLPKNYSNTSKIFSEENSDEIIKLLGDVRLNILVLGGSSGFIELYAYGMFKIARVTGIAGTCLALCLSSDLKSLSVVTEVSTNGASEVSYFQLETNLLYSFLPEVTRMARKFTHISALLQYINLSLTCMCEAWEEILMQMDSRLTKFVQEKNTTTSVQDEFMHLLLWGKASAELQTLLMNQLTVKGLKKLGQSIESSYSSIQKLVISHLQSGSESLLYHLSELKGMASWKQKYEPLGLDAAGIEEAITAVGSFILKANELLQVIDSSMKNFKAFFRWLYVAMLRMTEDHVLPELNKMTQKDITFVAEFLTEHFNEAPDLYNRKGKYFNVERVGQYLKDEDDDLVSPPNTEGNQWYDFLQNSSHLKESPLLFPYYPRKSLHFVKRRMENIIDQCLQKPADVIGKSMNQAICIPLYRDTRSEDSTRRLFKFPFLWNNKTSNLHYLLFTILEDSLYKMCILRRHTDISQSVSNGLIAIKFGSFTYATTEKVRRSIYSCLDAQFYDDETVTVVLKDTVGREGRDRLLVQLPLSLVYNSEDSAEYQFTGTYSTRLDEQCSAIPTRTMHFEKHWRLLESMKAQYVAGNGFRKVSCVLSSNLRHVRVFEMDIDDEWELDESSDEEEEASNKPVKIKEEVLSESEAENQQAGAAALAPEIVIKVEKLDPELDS
Description: as §1

Q86VP6 = target: T3, Q86VP6 (Homo sapiens, UniProt Q86VP6)
T3 construct: 200 μL of lysate containing 5 mg/ml proteome was treated with 2 μL of 100× compound stock; endogenous in cells
T3 sequence (Q86VP6 1-1230): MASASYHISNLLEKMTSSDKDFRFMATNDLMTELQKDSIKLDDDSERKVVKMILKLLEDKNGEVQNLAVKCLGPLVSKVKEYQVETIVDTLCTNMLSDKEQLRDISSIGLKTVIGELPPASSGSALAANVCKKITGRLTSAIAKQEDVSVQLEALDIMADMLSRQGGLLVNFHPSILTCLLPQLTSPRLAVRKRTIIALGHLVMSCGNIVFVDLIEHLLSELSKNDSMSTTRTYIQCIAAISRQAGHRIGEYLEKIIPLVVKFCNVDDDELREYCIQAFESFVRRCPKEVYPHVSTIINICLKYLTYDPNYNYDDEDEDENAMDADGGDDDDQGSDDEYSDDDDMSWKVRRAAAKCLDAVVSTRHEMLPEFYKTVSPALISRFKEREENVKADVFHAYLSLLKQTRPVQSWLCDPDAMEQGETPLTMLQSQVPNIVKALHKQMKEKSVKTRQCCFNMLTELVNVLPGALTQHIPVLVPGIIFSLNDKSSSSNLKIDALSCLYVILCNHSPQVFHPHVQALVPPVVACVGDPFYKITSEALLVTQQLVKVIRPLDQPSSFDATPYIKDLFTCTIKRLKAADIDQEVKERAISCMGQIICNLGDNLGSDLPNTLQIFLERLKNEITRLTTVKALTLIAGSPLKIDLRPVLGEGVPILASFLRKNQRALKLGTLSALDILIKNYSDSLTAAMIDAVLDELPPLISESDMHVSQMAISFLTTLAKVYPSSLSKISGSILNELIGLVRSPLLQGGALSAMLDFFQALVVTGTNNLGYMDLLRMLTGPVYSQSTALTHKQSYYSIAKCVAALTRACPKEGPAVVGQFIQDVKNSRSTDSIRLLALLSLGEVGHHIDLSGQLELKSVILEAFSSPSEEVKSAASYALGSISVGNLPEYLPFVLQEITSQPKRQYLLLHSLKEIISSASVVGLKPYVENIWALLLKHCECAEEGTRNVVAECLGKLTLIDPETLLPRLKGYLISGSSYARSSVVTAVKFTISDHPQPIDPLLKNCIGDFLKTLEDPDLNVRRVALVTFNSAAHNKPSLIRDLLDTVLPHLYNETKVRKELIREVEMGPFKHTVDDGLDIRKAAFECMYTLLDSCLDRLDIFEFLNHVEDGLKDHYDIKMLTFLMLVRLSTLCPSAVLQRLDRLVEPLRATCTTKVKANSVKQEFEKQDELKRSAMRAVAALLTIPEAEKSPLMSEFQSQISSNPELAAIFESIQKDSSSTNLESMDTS
Description: as §1

Q96C12 = target: T4, Q96C12 (Homo sapiens, UniProt Q96C12)
T4 construct: Cells were resuspended in cold PBS on ice and sonicated with a probe sonicator to achieve lysis; endogenous in cells
T4 sequence (Q96C12 1-935): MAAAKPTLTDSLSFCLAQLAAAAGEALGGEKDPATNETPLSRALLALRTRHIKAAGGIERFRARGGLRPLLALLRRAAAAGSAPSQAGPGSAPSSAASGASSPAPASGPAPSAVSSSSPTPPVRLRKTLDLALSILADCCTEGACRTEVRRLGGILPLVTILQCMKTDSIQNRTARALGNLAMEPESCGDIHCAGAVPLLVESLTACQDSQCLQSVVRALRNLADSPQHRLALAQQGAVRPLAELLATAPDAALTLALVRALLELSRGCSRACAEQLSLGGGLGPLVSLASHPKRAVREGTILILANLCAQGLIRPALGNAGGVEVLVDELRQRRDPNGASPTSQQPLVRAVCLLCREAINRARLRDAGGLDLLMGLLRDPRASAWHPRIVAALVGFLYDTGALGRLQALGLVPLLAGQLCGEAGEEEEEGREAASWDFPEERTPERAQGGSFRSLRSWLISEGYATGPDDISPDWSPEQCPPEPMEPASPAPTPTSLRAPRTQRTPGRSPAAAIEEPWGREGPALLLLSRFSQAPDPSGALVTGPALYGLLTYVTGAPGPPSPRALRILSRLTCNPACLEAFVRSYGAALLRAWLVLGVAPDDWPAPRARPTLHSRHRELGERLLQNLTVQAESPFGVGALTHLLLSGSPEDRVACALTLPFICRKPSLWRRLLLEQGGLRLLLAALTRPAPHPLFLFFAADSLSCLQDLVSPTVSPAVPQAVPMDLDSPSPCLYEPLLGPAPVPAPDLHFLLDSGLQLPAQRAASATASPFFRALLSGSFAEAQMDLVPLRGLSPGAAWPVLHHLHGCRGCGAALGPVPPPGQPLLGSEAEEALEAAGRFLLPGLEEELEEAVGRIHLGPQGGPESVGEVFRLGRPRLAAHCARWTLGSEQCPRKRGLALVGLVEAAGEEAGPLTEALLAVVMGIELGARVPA
Description: as §1

Q96DX5 = target: T5, Q96DX5 (Homo sapiens, UniProt Q96DX5)
T5 construct: 200 μL of lysate containing 5 mg/ml proteome was treated with 2 μL of 100× compound stock; endogenous in cells
T5 sequence (Q96DX5 1-294): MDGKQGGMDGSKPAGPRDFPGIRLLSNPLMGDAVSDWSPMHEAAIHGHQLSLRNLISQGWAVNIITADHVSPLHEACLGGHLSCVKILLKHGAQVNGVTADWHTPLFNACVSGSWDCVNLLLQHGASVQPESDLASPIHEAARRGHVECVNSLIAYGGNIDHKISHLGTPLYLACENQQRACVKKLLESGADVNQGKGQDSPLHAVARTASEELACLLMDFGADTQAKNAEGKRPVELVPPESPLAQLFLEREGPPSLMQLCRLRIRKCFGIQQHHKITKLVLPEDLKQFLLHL
Description: as §1

[1] = 500 uM, read-out: KB02_500 uM_percent_inhibition
[2] = read-out: KB02_100 uM_percent_inhibition
[3] = 100 uM, read-out: KB05_100 uM_percent_inhibition
[4] = 500 uM, read-out: KB05_500 uM_percent_inhibition
[5] = read-out: KB05_100 uM_percent_inhibition

Work on `COc1ccc2c(c1)CCCN2C(=O)CCl` [KB02] yielded an inhibition at 100 µM (Q9UM13; 100 uM, read-out: KB02_100 uM_percent_inhibition) of 1%, an inhibition at 500 µM (Q9UM13; [1]) of 53% and an inhibition at 500 µM (Q9UJX5; [1]) of 7%. The “KB02_100 uM_percent_inhibition” value (Q86VP6; 100 uM) was 27%, the inhibition at 100 µM (Q86VP6; [2]) was 47% and the inhibition at 100 µM (Q96C12; [2]) was 62%. The inhibition at 100 µM (Q96DX5; [2]) was 30%.
Molecule `C=CC(=O)N(c1ccccc1)c1ccc(Br)cc1` [KB05] has an inhibition at 100 µM (Q9UM13; [3]) of 18%, an inhibition at 500 µM (Q9UM13; [4]) of 62% and an inhibition at 100 µM (Q9UJX5; [3]) of 6%. The inhibition at 500 µM (Q9UJX5; [4]) was 20%, the “KB05_100 uM_percent_inhibition” value (Q86VP6; 100 uM) was 7% and the inhibition at 100 µM (Q86VP6; [5]) was 4%. For the same molecule, the inhibition at 100 µM (Q96C12; [5]) was 23% and the inhibition at 100 µM (Q96DX5; [5]) was 12%.
In the case of `O=C(CCl)Nc1cc(C(F)(F)F)cc(C(F)(F)F)c1` [KBO3], the “KB03_100 uM_percent_inhibition” value (Q9UM13; 100 uM) is reported as 11%, the “KB03_500 uM_percent_inhibition” value (Q9UM13; 500 uM) is reported as 37% and the “KB03_500 uM_percent_inhibition” value (Q9UJX5; 500 uM) is reported as 29%. For the same molecule, the “KB03_100 uM_percent_inhibition” value (Q86VP6; 100 uM) was 46%, the “KB03_100 uM_percent_inhibition” value (Q96C12; 100 uM) was 40% and the “KB03_100 uM_percent_inhibition” value (Q96DX5; 100 uM) was 33%.
